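Growth conditions: 96-well plates. Treatment: test compound, 48 hours, 5 concentrations. Analysis: linear interpolation between bracketing concentrations; unreached endpoints set to highest concentration. At the GI50, growth is halved. TGI marks complete inhibition of growth.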
Assays:
Test in all cases: NCI-60 cell line screen, 48 h
UACC-257 melanoma = tested on: UACC-257 melanoma
MOLT-4 leukemia = tested on: MOLT-4 leukemia
CCRF-CEM leukemia = tested on: CCRF-CEM leukemia
NCI-H226 lung = tested on: NCI-H226 lung
DMS 273 small cell lung = tested on: DMS 273 small cell lung
LXFL 529 NSCLC = tested on: LXFL 529 NSCLC
DMS 114 small cell lung = tested on: DMS 114 small cell lung
SNB-78 CNS = tested on: SNB-78 CNS
DLD-1 colon = tested on: DLD-1 colon
M19-MEL melanoma = tested on: M19-MEL melanoma
KM20L2 colon = tested on: KM20L2 colon
HOP-18 NSCLC = tested on: HOP-18 NSCLC

SMILES	TGI (UACC-257 melanoma) [µM]	TGI (MOLT-4 leukemia) [µM]	TGI (CCRF-CEM leukemia) [µM]	TGI (NCI-H226 lung) [µM]	other results
Cc1nc(N)c(N2CCNCC2)c(=O)[nH]1	> 100	> 100	> 100	> 100	–
CC1=C2C3=C(C)C(=O)C(C)(C)CC[C@@]3(C)[C@]2(C)CCC(C)(C)C1=O	> 100	> 100	> 100	> 100	–
Brc1ccc2c(-c3nc(-c4c[nH]c5ccc(Br)cc45)cs3)c[nH]c2c1	23.6	8.42	> 27.7	5.37	–
Cc1cc(=O)[nH]c(NNC(C#N)c2ccc(O)cc2)n1 (stereo not drawn)	> 100	> 100	> 100	> 100	TGI (DMS 273 small cell lung): > 100 µM; TGI (LXFL 529 NSCLC): > 100 µM; TGI (DMS 114 small cell lung): > 100 µM; TGI (SNB-78 CNS): > 100 µM; TGI (DLD-1 colon): > 100 µM; TGI (M19-MEL melanoma): > 100 µM; TGI (KM20L2 colon): > 100 µM; TGI (HOP-18 NSCLC): > 100 µM
COc1ccc(OC)c2c1C(=O)C(Cl)=C(N1CCN(CCOCCO)CC1)C2=O	33	32.8	14.1	39.5	–
O=C1NNC(=O)C2C3c4ccccc4C(c4ccccc43)C12 (stereo not drawn)	> 100	> 100	> 100	> 100	–
O=C(CSc1nnc(Cc2ccccc2)o1)Nc1cccc([N+](=O)[O-])c1	> 100	> 100	> 100	> 100	TGI (DMS 273 small cell lung): > 100 µM; TGI (LXFL 529 NSCLC): > 100 µM; TGI (DMS 114 small cell lung): > 100 µM; TGI (SNB-78 CNS): > 100 µM; TGI (DLD-1 colon): > 100 µM; TGI (M19-MEL melanoma): > 100 µM; TGI (KM20L2 colon): > 100 µM; TGI (HOP-18 NSCLC): > 100 µM
O=C(CC(=O)n1nc(-c2ccccc2)c(N=Nc2ccc(Cl)cc2)c1-c1ccccc1)Nc1cccc(Cl)c1	> 100	> 100	> 100	> 100	–
CCC1c2[nH]c3ccccc3c2C[C@H]2C(=O)NC(CCC(=O)OC(C)(C)C)C(=O)N12 (stereo partly drawn)	> 100	> 100	–	> 100	–
O=c1[nH]nc(-c2cccc(Br)c2)[nH]1	> 100	> 100	> 100	> 100	–
CNC(=O)N1CCN(C(=O)NC)CCN(C(=O)NC)CC1	> 100	> 100	> 100	> 100	–
COc1cccc(C2c3cc4c(cc3OC(N3CCCC3)C2C)OCO4)c1 (stereo not drawn)	52.3	–	17.1	–	–
CCOC(=O)NC(Nc1ccc(S(=O)(=O)Nc2ncccn2)cc1)(C(=O)OCC)C(F)(F)F (stereo not drawn)	> 100	> 100	> 100	> 100	–
O=P(c1ccccc1)(c1ccccc1)C(NCc1ccccc1)c1ccc(F)cc1 (stereo not drawn)	34.9	37.5	48.6	40.4	–
CCOC(=O)C(Cl)(NC(=O)c1ccc(F)cc1)C(F)(F)F (stereo not drawn)	> 100	> 100	> 100	> 100	–
COc1ccccc1N1C(=O)/C(=C\c2cccc(Oc3ccccc3)c2)SC1c1ccccc1 (stereo not drawn)	> 100	> 100	–	–	–
Cc1ccc(S(=O)(=O)OC2C3OC(C)(C)OC3OC2C(c2cc(O)c3c(c2O)C(=O)c2ccccc2C3=O)c2cc(O)c3c(c2O)C(=O)c2ccccc2C3=O)cc1 (stereo not drawn)	> 10	> 10	> 10	> 10	–
N#Cc1nc(COCCOCc2ccccc2)oc1N	> 100	> 100	> 100	> 100	–
CC1CN=C(Nc2ccc(S(N)(=O)=O)cc2)S1 (stereo not drawn)	> 100	> 100	> 100	–	–
CC/C(=N/O)c1ccc(Br)s1	> 100	> 100	97.1	> 100	–
O=C(CCc1ccc(O)cc1)NCCc1ccc(O)cc1	> 100	> 100	> 100	> 100	–
C1=C2C3=[N+](CCCC3)CC2Cc2ccsc21 (stereo not drawn)	> 100	> 100	> 100	> 100	–
Oc1cc(O)c2c(c1)O[C@H](c1cc(O)c(O)c(O)c1)[C@H](O)C2	> 100	32.9	42.4	> 100	–
CCOC(=O)N/N=C(/N)Cc1ccccc1	> 100	> 100	> 100	–	–

SMILES	TGI (UACC-257 melanoma) [µM]	TGI (MOLT-4 leukemia) [µM]	TGI (CCRF-CEM leukemia) [µM]	TGI (NCI-H226 lung) [µM]	other results
CC(=O)NCc1nc(C#N)c(N)o1	> 100	> 100	> 100	> 100	–
COC1(OC)C2(Cl)CCC1(Cl)C(OC(C)=O)C2 (stereo not drawn)	> 100	> 100	> 100	> 100	–
O=P(O)(O)CN1CCN(CP(=O)(O)O)CCN(CP(=O)(O)O)CCN(CP(=O)(O)O)CC1	> 100	> 100	> 100	> 100	–
CC(C)NC(=O)OCc1c(COC(=O)NC(C)C)c(-c2ccc[n+](COC(=O)CC(C)(C)C)c2)n2c1CCC2	> 100	> 100	> 100	> 100	–
Clc1ccc2c(NCCCCN=Cc3ccccc3)ccnc2c1	26	25.7	> 100	20	–
C=C1CC[C@@]2(OC1)OC1C[C@H]3[C@@H]4CC=C5C[C@@H](O)CC(OC6OCC(OC(=O)[C@@H](O)[C@@H](C)CC)C(OC(C)=O)C6OC6OC(C)C(O)C(O)C6O)[C@]5(C)[C@H]4CC[C@]3(C)C1[C@@H]2C (stereo partly drawn)	5.48	3.54	3.43	6.01	–
O=C1C(Br)=CC2(C=C1Br)CCN=c1c(O)c3c(c(O)c12)=NC=N3	28	> 100	48.9	37.4	–
CSc1nc(Cl)c2c(n1)Sc1nc3cc4c(cc3n1C2O)OCO4 (stereo not drawn)	> 100	> 100	> 100	6.09	–
Cc1[nH]c(=O)[nH]c(=S)c1C(=O)NC(C)(CO)CO	> 100	> 100	> 100	> 100	–
C=C(C)[C@@H](C(=O)OC)N1C(=O)c2ccccc2C1=O	> 100	> 100	> 100	> 100	–
Nc1ccc(C(=O)Nn2c(-c3ccccc3)nc3ccccc3c2=O)cc1	> 100	> 100	> 100	> 100	–
Cc1cc(O)c(/C=N/C(=S)NCCc2ccccc2)c(=O)o1	> 100	> 100	–	> 100	–
CC(=O)NNc1nc(C)c(C(/C=C/c2cccc([N+](=O)[O-])c2)=N/NC(=S)NN)s1	> 100	> 100	> 100	> 100	–
Cc1nnc([C@@]2(C)CC[C@H]3[C@@H](CC=C4C[C@@H](O)CC[C@@]43C)[C@@H]2CC#N)o1	> 100	> 100	> 100	> 100	–
Cc1ccccc1Nc1cn(COCc2ccccc2)c(=O)[nH]c1=O	> 100	> 100	> 100	–	–
COc1ccc(-c2c(C(C)=O)c(-c3ccccc3)n(C3OC(COC(C)=O)C(OC(C)=O)C(OC(C)=O)C3OC(C)=O)c(=S)c2C#N)cc1 (stereo not drawn)	> 100	> 100	> 100	> 100	–
CC(C(=O)N1c2ccccc2Sc2ccccc21)N1c2ccccc2Sc2ccccc21 (stereo not drawn)	> 100	> 100	> 100	> 100	–
CO/N=C(\C(=O)Nc1cncs1)c1csc(NC(c2ccccc2)(c2ccccc2)c2ccccc2)n1	> 10	> 10	> 10	> 10	–
Cc1oc2nc(N(C)C)nc(Cl)c2c1C	> 100	> 100	> 100	> 100	–
Cn1c(=O)c2c(nc(NCCCCl)n2CC(=O)NCCCCl)n(C)c1=O	> 100	> 100	> 100	> 100	–
O=C1SCC(O)=C1/C=N/Nc1nc2ccccc2o1	72.5	> 100	48.8	76.6	–
Clc1cccc(Cl)c1C1SCC2=Nc3ccccc3CN21 (stereo not drawn)	> 100	> 100	> 100	–	–
CCCCCCCCCCCCCCCCCc1cccc(OCOCCOC)c1CO	> 100	> 100	> 100	> 100	–
CCOC(=O)Cn1sc2ncc([N+](=O)[O-])cc2c1=O	31.6	9.45	5.41	> 100	–

SMILES	TGI (UACC-257 melanoma) [µM]	TGI (MOLT-4 leukemia) [µM]	TGI (CCRF-CEM leukemia) [µM]	TGI (NCI-H226 lung) [µM]	other results
O=C(CNc1ccc(Cl)cc1)Nn1c(-c2ccccc2)nc2ccccc2c1=O	33.2	16.2	9.48	25.2	–
NC(N)=N/N=C/c1c(Cl)nc2sccn12	49	> 100	73	66.9	–
CC(=O)O[C@@H]1C=C(C)[C@H](CBr)O[C@@]2(C)CC[C@H](Br)C(C)(C)[C@H]12	> 100	> 100	> 100	> 100	–
O=C(Nc1ccc2nc(-c3ccccc3)cn2c1)Oc1ccccc1	> 100	> 100	> 100	> 100	–
COc1ccc2c(c1)OCc1c-2oc2ccccc2c1=O	> 100	> 100	> 100	> 100	–
CCCCn1c(C)c(C(=O)OCC)c2cc(OCc3ccc(C(=O)Nn4c(C)ccc4C)cc3)c(Br)cc21	> 100	> 100	> 100	> 100	–
O=C(CC(=O)N(C(=O)c1ccccc1)c1ccc(Cl)cc1)N/N=C\c1cc(N=Nc2ccccc2Cl)ccc1O	–	37.8	51.4	> 100	–
Cc1cccc2c(N)c3cccc(C(=O)NCCCNCCN)c3nc12	31.1	17.4	> 70.4	9.15	–
CN1CCC(OC(=O)Oc2ccccc2)(c2ccccc2)CC1	34	36.4	55.1	62.7	–
COC12C=CC(CC1)C(C)(C)C2=O (stereo not drawn)	> 100	> 100	> 100	> 100	–
CCN(CC)Cc1cc(Nc2ccnc3ccc4c(nnn4C)c23)ccc1O	28.8	> 100	35.7	–	–
NS(=O)(=O)c1nnc(NC(=O)c2ccccc2)s1	> 100	> 100	–	> 100	–
CC(=O)OCC1OC(N2C(c3ccccc3)=CC(c3ccccc3)C(C#N)=C2S)C(OC(C)=O)C(OC(C)=O)C1OC(C)=O (stereo not drawn)	16.5	> 100	> 100	> 100	–
S=C(/N=c1/sc(Nc2ccccc2)nc2sc3c(c12)CCCC3)Nc1ccccc1	> 62.5	> 62.5	> 62.5	> 62.5	–
Nc1nc(Cl)cc(NCC2(CO)COC2)n1	> 100	–	> 100	> 100	–
CCOC(=O)/C(O)=C(/C=NC(=S)c1ccncc1)C(=O)OCC	> 100	> 100	> 100	> 100	–
C/C(=N\NC(=S)N1CC2CCC(CC2)C1)c1ccncn1	2.91	–	–	2.33	–
COC(=O)CCC(=O)NC1c2cccc3cccc(c23)Cn2c(=O)n(C)c(=O)n21 (stereo not drawn)	> 100	> 100	> 100	–	–
CCOC(=O)CC(NC(=O)c1nc[nH]c1[N+](=O)[O-])C(=O)OCC (stereo not drawn)	> 100	> 100	> 100	72.5	TGI (DMS 273 small cell lung): > 100 µM; TGI (LXFL 529 NSCLC): > 100 µM; TGI (DMS 114 small cell lung): > 100 µM; TGI (DLD-1 colon): > 100 µM; TGI (M19-MEL melanoma): > 100 µM
COC(=O)c1ccc2c(c1)CC1(C2)Cc2cc3c(cc2C1=O)CCC3 (stereo not drawn)	46.7	29.2	52.7	–	–
S=C1Cc2c([nH]c3ccccc23)-c2ccccc2N1	> 100	> 100	> 100	89.5	–
N#[O+].O=S(=O)([O-])[O-].[NH2-].[NH2-].[NH2-].[NH2-].[NH2-].[Ru+5]	> 100	> 100	> 100	> 100	GI50 (LXFL 529 NSCLC): > 100 µM; TGI (LXFL 529 NSCLC): > 100 µM; TGI (SNB-78 CNS): > 100 µM; TGI (DLD-1 colon): > 100 µM; TGI (KM20L2 colon): > 100 µM

Source: PubChem BioAssay (NCI)
